Measured values taken from patent US10307413B2, “Tetrahydro- and dihydro-isoquinoline PRMT5 inhibitors and uses thereof” (Epizyme, Inc., priority 2013, dated 2019).
Read-outs that look alike come from different tables or passages of the source.

Columns and labels:
[1] = biological target: PRMT5/MEP50 (Homo sapiens (Human), UniProt O14744); test: PRMT5 Biochemical Assay (PRMT5/MEP50 enzyme assay on peptide substrate, 3H-SAM Flashplate)
Source text: S-adenosylmethionine (SAM), S-adenosylhomocysteine (SAH), bicine, KCl, Tween20, dimethylsulfoxide (DMSO), bovine skin gelatin (BSG), and Tris(2-carboxyethyl)phosphine hydrochloride solution (TCEP) were purchased from Sigma-Aldrich at the highest level of purity possible. ^3H-SAM was purchase from American Radiolabeled Chemicals with a specific activity of 80 Ci/mmol. 384-well streptavidin Flashplates were purchased from PerkinElmer.
Peptide representative of human histone H4 residues 1-15 was synthesized with a C-terminal linker-affinity tag motif and a C-terminal amide cap by 21st Century Biochemicals.
The amplified genes were sublconed into pENTR/D/TEV (Life Technologies) and subsequently transferred by Gateway™ attL×attR recombination to pDEST8 baculovirus expression vector (Life Technologies).
Protein over-expression was accomplished by infecting exponentially growing Spodoptera frugiperda (SF9) cell culture at 1.2×10^6 cell/ml with a 5000 fold dilution of BIIC stock. Infections were carried out at 27° C. for 72 hours, harvested by centrifugation, and stored at −80° C. for purification.
Flag-PRMT5/6His-MeP50 was eluted with 300 mM Imidazole in the same buffer.
General Procedure for PRMT5/MEP50 Enzyme Assays on Peptide Substrates.
The assays were all performed in a buffer consisting of 20 mM Bicine (pH=7.6), 1 mM TCEP, 0.005% BSG, and 0.002% Tween20, prepared on the day of use. […] DMSO (1 ul) was added to Columns 11, 12, 23, 24, rows A-H for the maximum signal control and 1 ul of SAH, a known product and inhibitor of PRMT5/MEP50, was added to columns 11, 12, 23, 24, rows I-P for the minimum signal control. A cocktail (40 ul) containing the PRMT5/MEP50 enzyme and the peptide was added by Multidrop Combi (Thermo-Fisher). The compounds were allowed to incubate with PRMT5/MEP50 for 30 min at 25 degrees Celsius, then a cocktail (10 ul) containing ^3H-SAM was added to initiate the reaction (final volume=51 ul). […] The assays were stopped by the addition of non-radioactive SAM (10 ul) to a final concentration of 600 uM, which dilutes the ^3H-SAM to a level where its incorporation into the peptide substrate is no longer detectable. 50 ul of the reaction in the 384-well polypropylene plate was then transferred to a 384-well Flashplate and the biotinylated peptides were allowed to bind to the streptavidin surface for at least 1 hour before being washed three times with 0.1% Tween20 in a Biotek ELx405 plate washer. The plates were then read in a PerkinElmer TopCount plate reader to measure the quantity of ^3H-labeled peptide bound to the Flashplate surface, measured as disintegrations per minute (dpm) or alternatively, referred to as counts per minute (cpm).
[formula] [formula] Where dpm=disintegrations per minute, cmpd=signal in assay well, and min and max are the respective minimum and maximum signal controls.
[formula] [formula] Where top and bottom are the normally allowed to float, but may be fixed at 100 or 0 respectively in a 3-parameter fit. The Hill Coefficient normally allowed to float but may also be fixed at 1 in a 3-parameter fit. Y is the % inhibition and X is the compound concentration.

[2] = test system: symmetric di-methyl arginine in Z-138 cells; test: Z-138 Methylation Assay (In Cell Western for symmetric di-methyl arginine and DNA content); type: cell-based; conditions: Homo sapiens, read-out: ICW EC50
How it was run: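 In-cell western: symmetric di-methyl arginine signal ratioed to DRAQ5 DNA content after 96 h compound exposure of Z-138 cells seeded at 50,000 cells/mL.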

[3] = test system: Z-138 cell line; test: Z-138 Proliferation Assay (Cell Titer Glo, 5 days); type: cell-based; conditions: Homo sapiens, 120 h, Z-138 cells, 5 days, read-out: Proliferation EC50
How it was run: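 Viability via CellTiter-Glo luminescence (ATP) after 5-day incubation at 37 °C, 5% CO2. Compounds tested in triplicate, nine 3-fold steps, highest final concentration 20 μM in 0.2% DMSO; 50% inhibitory concentration by 4-parameter fit of normalized curves.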

Chain of PRMT5/MEP50 (O14744 other isoform, or with tags, fused parts or gaps): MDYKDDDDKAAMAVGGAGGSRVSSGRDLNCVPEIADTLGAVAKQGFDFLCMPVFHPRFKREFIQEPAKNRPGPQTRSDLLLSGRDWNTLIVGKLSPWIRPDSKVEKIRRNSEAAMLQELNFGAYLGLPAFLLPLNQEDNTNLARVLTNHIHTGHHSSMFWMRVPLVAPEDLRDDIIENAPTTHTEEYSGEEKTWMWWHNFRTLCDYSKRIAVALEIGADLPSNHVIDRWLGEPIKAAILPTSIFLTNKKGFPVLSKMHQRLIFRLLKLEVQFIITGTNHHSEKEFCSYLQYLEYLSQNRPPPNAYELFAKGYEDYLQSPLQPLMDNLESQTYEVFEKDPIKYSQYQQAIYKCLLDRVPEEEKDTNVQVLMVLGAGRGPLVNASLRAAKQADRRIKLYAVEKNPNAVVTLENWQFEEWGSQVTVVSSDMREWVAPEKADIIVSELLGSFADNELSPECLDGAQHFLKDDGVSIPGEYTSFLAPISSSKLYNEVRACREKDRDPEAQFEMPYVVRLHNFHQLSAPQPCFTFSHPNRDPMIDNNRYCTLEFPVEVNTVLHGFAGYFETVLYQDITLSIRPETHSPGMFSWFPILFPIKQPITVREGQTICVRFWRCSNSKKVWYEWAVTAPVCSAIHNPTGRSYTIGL
Chain of PRMT5/MEP50 (Q9BQA1 other isoform, or with tags, fused parts or gaps partner): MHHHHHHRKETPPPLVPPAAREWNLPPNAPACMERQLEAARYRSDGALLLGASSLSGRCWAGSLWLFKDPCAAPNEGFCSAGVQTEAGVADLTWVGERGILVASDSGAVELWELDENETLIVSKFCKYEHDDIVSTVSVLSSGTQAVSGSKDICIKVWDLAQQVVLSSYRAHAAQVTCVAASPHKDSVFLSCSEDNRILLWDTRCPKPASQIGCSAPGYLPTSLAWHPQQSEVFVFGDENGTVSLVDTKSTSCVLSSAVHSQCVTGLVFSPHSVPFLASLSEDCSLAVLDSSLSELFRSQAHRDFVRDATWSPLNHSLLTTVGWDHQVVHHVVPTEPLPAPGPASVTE

| SMILES | IC50 [1] [nM] | EC50 [2] [nM] | EC50 [3] [µM] | IC50 ([1]; PRMT5 biochemical assay) [nM] | EC50 ([2]; In Cell Western methylation) [nM] | EC50 ([3]; Cell Titer Glo) [µM] |
| --- | --- | --- | --- | --- | --- | --- |
| O=C(NC[C@H](O)CN1CCc2ccccc2C1)c1ccc(OCCCN2CCC2)cc1 [Compound 373] | < 100 | < 100 | 1 to 10 |  |  |  |
| O=C(NC[C@H](O)CN1CCc2ccccc2C1)C1=CC2=N[C@H](CO)CN2C=N1 [Compound 548] |  |  |  | 101 to 1000 | > 1000 | > 5 |
| CN(C[C@H](O)CN1CCc2ccccc2C1)C(=O)c1ccnc(NC2CCOCC2)c1 [Compound 357] | 101 to 1000 | < 100 | 1 to 10 |  |  |  |
| CC(=O)N1CCC(Nc2cc(C(=O)NC[C@H](O)CN3CCc4c(C)cccc4C3)ncn2)CC1 [Compound 677] |  |  |  | < 100 | < 100 | 1 to 10 |
| CN(C)[C@H]1C[C@@H](Nc2cc(C(=O)NC[C@H](O)CN3CCc4ccccc4C3)ncn2)C1 [Compound 377] | < 100 | 101 to 1000 | 1 to 10 |  |  |  |
| O=C(NC[C@H](O)CN1CCc2ccccc2C1)c1cc(NC2CNC2)nc(N2CCN(C(=O)C3CC3)CC2)n1 [Compound 485] |  |  |  | < 100 | 101 to 1000 | 1 to 10 |
| O=C(NC[C@H](O)CN1CCc2ccccc2C1)c1ccc(OCCCN2CCCCC2)cc1 [Compound 362] | 101 to 1000 | < 100 | 0.101 to 1 |  |  |  |
| O=C(NCCCN1CCc2ccccc2C1)c1cc(NC2COC2)ncn1 [Compound 651] |  |  |  | 101 to 1000 | > 1000 | > 5 |
| CO[C@H]1CC[C@@H](Nc2cc(C(=O)NC[C@H](O)CN3CCc4ccccc4C3)ncn2)CC1 [Compound 624] |  |  |  | < 100 | < 100 | < 0.1 |
| CC(=O)N1CC(Nc2cc(C(=O)NC[C@H](O)CN3CCc4ccc(C)cc4C3)ncn2)C1 [Compound 667] |  |  |  | 101 to 1000 | < 100 | 1 to 10 |
| Nc1cc(C(=O)NC[C@H](O)CN2CCc3ccccc3C2)ncn1 [Compound 429] |  |  |  | 101 to 1000 | 101 to 1000 | 10 to 50 |
| CC(=O)N1CCC(Nc2cc(C(=O)NC[C@H](O)CN3CCc4cccc(C)c4C3)ccn2)CC1 [Compound 665] |  |  |  | < 100 | < 100 | < 0.1 |
| O=C(NC[C@H](O)CN1CCc2ccccc2C1)c1cncc(NC2COC2)n1 [Compound 366] | 101 to 1000 | 101 to 1000 | > 20 |  |  |  |
| O=C(NC[C@H](O)CN1CCc2ccccc2C1)c1ncnc(NC2COC2)c1Cl [Compound 437] |  |  |  | < 100 | < 100 | 1 to 10 |
| COC(CNC(=O)c1cc(NC2CCN(C)CC2)ncn1)CN1CCc2ccccc2C1 (stereo not drawn) [Compound 540] |  |  |  | 1000 to 10000 | > 1000 | > 5 |
| O=C(NC[C@H](O)CN1CCc2ccccc2C1)c1cccc(NC2COC2)n1 [Compound 436] |  |  |  | < 100 | < 100 | 1 to 10 |
| O=C(NC[C@H](O)CN1CCc2ccccc2C1)c1ccc(OCCN2CCC2)cc1 [Compound 388] | < 100 | < 100 | 1 to 10 |  |  |  |
| CC(=O)[C@H]1CC[C@@H](Nc2cc(C(=O)NC[C@H](O)CN3CCc4ccccc4C3)ncn2)CC1 [Compound 615] |  |  |  | < 100 | < 100 | < 0.1 |
| O=C(NC[C@H](O)CN1CCc2ccccc2C1)c1ccc(OCCCN2CCOCC2)cc1 [Compound 363] | < 100 | < 100 | 1 to 10 |  |  |  |
| CC(=O)N1CCC(Nc2cc(C(=O)NC[C@H](O)CN3CCc4ccccc4C3(C)C)ncn2)CC1 [Compound 606] |  |  |  | 101 to 1000 | 101 to 1000 | > 5 |
| Cc1ccc2c(c1)CCN(C[C@@H](O)CNC(=O)c1cc(NC3COC3)ncn1)C2 [Compound 681] |  |  |  | 101 to 1000 | 101 to 1000 | > 5 |
